From article PMC3454513 (Nature structural & molecular biology, 2012)

How the values were obtained:
p53 = experiment: Immunoblot of p53 phosphorylated at Ser15, HCT 116 cells; assay type: cell-based, human; conditions: 10 μM doxorubicin or 100 μM etoposide for 4 h
[1] = test system: PHF20 Tudor2 and Tudor1-2; assay type: binding, human; conditions: peptide array (Supplementary Fig. 1)
mass spectrometry = target: the molecule itself; experiment: mass spectrometry

| Molecule | interaction with PHF20 among the four known methylated forms of p53 [1] | further results |
| --- | --- | --- |
| COc1cccc2c1C(=O)c1c(O)c3c(c(O)c1C2=O)C[C@@](O)(C(=O)CO)C[C@@H]3O[C@H]1C[C@H](N)[C@H](O)[C@H](C)O1 [doxorubicin] | – | phosphorylation of p53 at Ser15 (p53): induced phosphorylation of p53 at Ser15 |
| p53K370me2: Cy3-labeled 18-amino acid p53 peptide dimethylated at Lys370 | strongest interaction | – |
| p53K382me2: Cy3-labeled 18-amino acid p53 peptide dimethylated at Lys382 | strongest interaction | – |
| PHF20 Tudor2 (amino acids 84–147), disulfide cross-linked homodimer (domain or fragment, human, UniProt Q9BVI0 84-147, looked up, disulfide bonds between Cys96 and Cys100 of subunit A and Cys100 and Cys96 of subunit B) SSEFQINEQVLACWSDCRFYPAKVTAVNKDGTYTVKFYDGVVQTVKHIHVKAFSKDQNIVGNAR | – | stoichiometry N (mass spectrometry): 2 |
